Several values for one entry are separate records, joined by “and”; a condition that tells them apart may be missing. Equal entries are not always repeated.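 Briefly, cells in 96-well plates were exposed to five compound concentrations for 48 h, and endpoints were estimated by linear interpolation. GI50 = concentration required for 50% inhibition of growth. At the TGI there is no net growth.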
How the values were obtained:
Experiment in all cases: growth of human tumour cells (NCI), 48 h
T-47D breast = tested on: T-47D breast
DLD-1 colon = tested on: DLD-1 colon
DMS 273 small cell lung = tested on: DMS 273 small cell lung
LXFL 529 NSCLC = tested on: LXFL 529 NSCLC
SNB-78 CNS = tested on: SNB-78 CNS
DMS 114 small cell lung = tested on: DMS 114 small cell lung
XF 498 CNS = tested on: XF 498 CNS
MDA-N = tested on: MDA-N
RXF-631 renal = tested on: RXF-631 renal

Work on COC1CC2C=C(C)/C=C/C=C/C(=O)NC(c3ccccc3)C/C=C/CCC(O)CC(=O)C2=C1O (stereo unspecified) yielded a GI50 (T-47D breast) of 0.264 µM and a TGI (T-47D breast) of 0.871 µM.

Compound Cn1c(=O)nc2n(-c3cccc(F)c3)c3ccccc3nc-2c1=O has a TGI (DLD-1 colon) greater than 100 µM, a TGI (DMS 273 small cell lung) of 32.8 µM and a TGI (LXFL 529 NSCLC) greater than 100 µM. The TGI (SNB-78 CNS) was 68.4 µM.

CO/C1=C\C(C)=C\C(C)C(O)C(C)C/C(C)=C/C=C/C(OC)C(C(C)C(O)C(C)C2(O)CC(O)C(C)C(C(C)C)O2)OC1=O (stereo unspecified) was tested, and the TGI (DLD-1 colon) was 21.7 µM, the TGI (DMS 114 small cell lung) was 10.3 µM and the TGI (DMS 273 small cell lung) was 0.0107 µM and 0.0233 µM. For the same compound, the TGI (SNB-78 CNS) was 25 µM, the GI50 (XF 498 CNS) was 12.2 nM and the TGI (XF 498 CNS) was 0.0849 µM and 0.0294 µM.

CCCCNN was tested, and the TGI (MDA-N) was greater than 100 µM and the TGI (T-47D breast) was greater than 100 µM.

Cc1c(C(=O)NCCO)[n+](=O)c2cc(Cl)ccc2n1[O-] showed a TGI (DLD-1 colon) greater than 100 µM, a TGI (DMS 114 small cell lung) greater than 100 µM and a TGI (DMS 273 small cell lung) greater than 100 µM. For the same compound, the TGI (LXFL 529 NSCLC) was greater than 100 µM and the TGI (SNB-78 CNS) was greater than 100 µM.

With OCCSCc1ccccc1 the TGI (MDA-N) was greater than 100 µM and the TGI (T-47D breast) was greater than 100 µM.

CCN1C(=S)N(CC)C2C1NC(=S)N2/N=C/C=C/c1ccccc1 (stereo unspecified) gave a GI50 (T-47D breast) of 3.55 µM and a TGI (T-47D breast) of 18.2 µM.

With CC/C=C\C[C@H](O)C/C=C1/C(=O)C=C[C@@H]1C/C=C\CCCC(=O)N(C)C the GI50 (T-47D breast) was 2.57 µM and the TGI (T-47D breast) was 11.8 µM.

CC1(C)OC(=O)C=C([O-])O1.CC1(C)OC(=O)C=C([O-])O1.O=S(=O)([O-])c1ccc([O-])c2ncccc12.O=S(=O)([O-])c1ccc([O-])c2ncccc12.[Ti+4] showed a GI50 (DLD-1 colon) greater than 100 µM, a TGI (DLD-1 colon) greater than 100 µM and a GI50 (DMS 114 small cell lung) greater than 100 µM. For the same compound, the TGI (DMS 114 small cell lung) was greater than 100 µM, the GI50 (DMS 273 small cell lung) was greater than 100 µM and the TGI (DMS 273 small cell lung) was greater than 100 µM. It also gave a GI50 (LXFL 529 NSCLC) of 67.1 µM, a TGI (LXFL 529 NSCLC) greater than 100 µM and a GI50 (SNB-78 CNS) greater than 100 µM. For the same compound, the TGI (SNB-78 CNS) was greater than 100 µM.

Cc1ccc(S(=O)(=O)NC(=O)NC23CC4CC(CC(F)(C4)C2)C3)cc1 was tested, and the TGI (DLD-1 colon) was greater than 100 µM, the TGI (DMS 114 small cell lung) was greater than 100 µM and the TGI (DMS 273 small cell lung) was greater than 100 µM. It also gave a TGI (LXFL 529 NSCLC) greater than 100 µM, a TGI (SNB-78 CNS) greater than 100 µM and a TGI (XF 498 CNS) greater than 100 µM.

In the case of CC(C)(C)NCc1cc(C(C)(C)C)cc(-c2ccc(Cl)cc2)c1O, the TGI (MDA-N) is reported as 31.4 µM.

With O=c1nc(Nc2cccc(Cl)c2)oc2cc(Cl)oc(=O)c12 the GI50 (T-47D breast) was 5.29 µM and the TGI (T-47D breast) was 27.1 µM.

C=C1C(=O)OC2CC1C(O)C/C(C)=C/CC/C(C)=C/C(O)CC2C (stereo unspecified) gave a TGI (MDA-N) of 9.53 µM and a TGI (T-47D breast) of 4.48 µM.

In the case of Cc1sc(C)c(Cc2c(C)sc(C)c2CCl)c1CCl, the GI50 (T-47D breast) is reported as greater than 100 µM and the TGI (T-47D breast) is reported as greater than 100 µM.

For CCOC(=O)C(Cc1c[nH]c2ccc(N(CCCl)CCCl)cc12)(NC(C)=O)C(=O)OCC, the GI50 (T-47D breast) was 9.31 µM and 6.59 µM and the TGI (T-47D breast) was 51.9 µM and > 71.8 µM.

In the case of NNc1nc2ccccc2c(=O)n1NC(=O)C(=O)Nc1cccc(C(F)(F)F)c1, the TGI (MDA-N) is reported as greater than 100 µM and the TGI (T-47D breast) is reported as greater than 100 µM.

Work on Cn1c(=O)c(Oc2ccccc2F)cc2cnc(NC3CCOCC3)nc21 yielded a GI50 (T-47D breast) greater than 25 µM and a TGI (T-47D breast) greater than 25 µM.

Work on CC(=O)OC1CC2C(C)(C)C(=O)C=C[C@]2(C)C2CCC3(C)C(c4ccoc4)C(=O)[C@H]4O[C@]43[C@]12C (stereo partly specified) yielded a TGI (DLD-1 colon) of 28.3 µM, a TGI (DMS 114 small cell lung) greater than 100 µM and a TGI (LXFL 529 NSCLC) greater than 100 µM. The TGI (SNB-78 CNS) was greater than 100 µM.

With N=C(N=C(N)N)N1CCN(c2ccncc2)CC1 the GI50 (T-47D breast) was greater than 1000 µM and the TGI (T-47D breast) was greater than 1000 µM.

NC(=O)N/N=C/C(/C=N/NC(N)=O)[N+](=O)[O-] was tested, and the TGI (DLD-1 colon) was greater than 100 µM, the TGI (DMS 114 small cell lung) was greater than 100 µM and the TGI (LXFL 529 NSCLC) was greater than 100 µM. For the same compound, the TGI (RXF-631 renal) was greater than 100 µM and the TGI (XF 498 CNS) was greater than 100 µM.

CCCCCC(=O)c1ccc2[nH]c3c(C)cc([N+](=O)[O-])c(C)c3c2c1 showed a TGI (DMS 114 small cell lung) greater than 100 µM, a TGI (DMS 273 small cell lung) greater than 100 µM and a TGI (SNB-78 CNS) greater than 100 µM. It also gave a TGI (XF 498 CNS) greater than 100 µM.

Work on CCOC(=O)C(=Cc1ccccc1[N+](=O)[O-])C(=O)OCC yielded a GI50 (T-47D breast) of 3.68 µM and a TGI (T-47D breast) of 17.5 µM.

CC(=O)O[C@H]1CC[C@@]2(C)C(=CC[C@H]3[C@@H]4C/C(=C\c5cccc(OCCN6CCOCC6)c5)[C@H](OC(C)=O)[C@@]4(C)CC[C@@H]32)C1 was tested, and the GI50 (T-47D breast) was 4.18 µM and the TGI (T-47D breast) was 22.5 µM.

For COCCOC(=O)NC(=O)Nc1ccc(/C(=N/O)c2ccc(Cl)cc2)cc1, the GI50 (T-47D breast) was 8.82 µM and the TGI (T-47D breast) was 50.5 µM.

COc1ccc2c(c1OC)C1=C(C2=O)c2cc3c(cc2CCN1)OCO3 was tested, and the TGI (DLD-1 colon) was greater than 100 µM, the TGI (DMS 114 small cell lung) was 56.7 µM and the TGI (DMS 273 small cell lung) was 52.9 µM. The TGI (LXFL 529 NSCLC) was greater than 100 µM, the TGI (SNB-78 CNS) was greater than 100 µM and the TGI (XF 498 CNS) was 87.2 µM.

Work on CCNC(=O)C#CC(=O)NCC yielded a GI50 (DLD-1 colon) greater than 10 µM, a TGI (DLD-1 colon) greater than 64.9 µM and a GI50 (DMS 114 small cell lung) greater than 10 µM. For the same compound, the TGI (DMS 114 small cell lung) was greater than 100 µM, the GI50 (DMS 273 small cell lung) was greater than 10 µM and the TGI (DMS 273 small cell lung) was > 10 µM and 39.6 µM. It also gave a GI50 (LXFL 529 NSCLC) greater than 10 µM, a TGI (LXFL 529 NSCLC) greater than 100 µM and a GI50 (RXF-631 renal) greater than 10 µM. It also gave a TGI (RXF-631 renal) greater than 100 µM, a GI50 (SNB-78 CNS) greater than 100 µM and a TGI (SNB-78 CNS) greater than 100 µM. It also gave a TGI (XF 498 CNS) greater than 100 µM.

With COc1ccc(C(N)=O)cc1N=NN(C)C the TGI (DLD-1 colon) was greater than 100 µM, the TGI (DMS 273 small cell lung) was greater than 100 µM and the TGI (LXFL 529 NSCLC) was greater than 100 µM.

Cc1cc(C)c(C[N+](C)(C)C)c(C)c1C showed a GI50 (T-47D breast) of 0.292 µM and a TGI (T-47D breast) of 9.92 µM.

Compound CC(C)c1ccc(C(=O)Nc2sc3c(c2C#N)CCC(=O)C3)cc1 has a GI50 (T-47D breast) of 0.263 µM and a TGI (T-47D breast) of 1.48 µM.

In the case of CN1NC2(CCCCC2)ON=C1c1ccccc1, the TGI (DLD-1 colon) is reported as greater than 100 µM, the TGI (DMS 114 small cell lung) is reported as greater than 100 µM and the TGI (SNB-78 CNS) is reported as greater than 100 µM.

For CN1CCCN(C)C1c1cc([N+](=O)[O-])ccc1O, the TGI (MDA-N) was greater than 100 µM and the TGI (T-47D breast) was greater than 100 µM.

O=C1C[C@@H]2C(COC(=O)c3ccccc3)N(OCc3ccccc3)C[C@@H]2O1 (stereo partly specified) gave a TGI (DLD-1 colon) greater than 100 µM, a TGI (DMS 114 small cell lung) greater than 100 µM and a TGI (DMS 273 small cell lung) greater than 100 µM. It also gave a TGI (LXFL 529 NSCLC) greater than 100 µM, a TGI (RXF-631 renal) greater than 100 µM and a TGI (SNB-78 CNS) greater than 100 µM.

Compound COc1cc2c3c(n(CCCNCCN)c(=O)c2cc1OC)-c1cc2c(cc1C3=O)OCO2 has a GI50 (T-47D breast) greater than 100 µM and a TGI (T-47D breast) greater than 100 µM.

Compound N=c1nnc(=O)c2c(s1)-n1ncc(C(=O)O)c1NN2 has a TGI (DLD-1 colon) greater than 100 µM, a TGI (DMS 114 small cell lung) greater than 100 µM and a TGI (LXFL 529 NSCLC) greater than 100 µM.

In the case of COC(=O)c1c2c(c(C)[n+]([O-])c1C)C(=O)C=C(NCc1ccc(F)c(F)c1)C2=O, the GI50 (T-47D breast) is reported as 0.127 µM and the TGI (T-47D breast) is reported as 1.02 µM.

In the case of Cc1c(C(=O)c2ccccc2C(=O)O)c2ccccc2n1C, the TGI (DLD-1 colon) is reported as greater than 100 µM, the TGI (DMS 114 small cell lung) is reported as greater than 100 µM and the TGI (DMS 273 small cell lung) is reported as greater than 100 µM. For the same compound, the TGI (LXFL 529 NSCLC) was greater than 100 µM, the TGI (SNB-78 CNS) was greater than 100 µM and the TGI (XF 498 CNS) was greater than 100 µM.

Compound C#CC1(O)C(COP(=O)(O)OC2CC(n3cc(F)c(=O)[nH]c3=O)OC2CO)OC(n2ccc(N)nc2=O)C1O (stereo unspecified) has a GI50 (T-47D breast) of less than 0.0157 µM and a TGI (T-47D breast) greater than 51.7 µM.

O=[N+]([O-])c1ccc(N/N=C/c2c(O)ccc3ccccc23)nc1 showed a GI50 (T-47D breast) of 6.39 µM and a TGI (T-47D breast) greater than 100 µM.

NNc1cccc(/C=C/c2ccccc2)cc1=O gave a GI50 (T-47D breast) of 5.36 µM and a TGI (T-47D breast) of 92.5 µM.

C=C=C(CC)C(C(=O)OC)N(CC)CC (stereo unspecified) gave a TGI (DLD-1 colon) greater than 100 µM, a TGI (DMS 114 small cell lung) greater than 100 µM and a TGI (LXFL 529 NSCLC) greater than 100 µM. It also gave a TGI (RXF-631 renal) greater than 100 µM, a TGI (SNB-78 CNS) greater than 100 µM and a TGI (XF 498 CNS) greater than 100 µM.

CC(=O)O[C@H]1CC[C@@]2(C)C(=CC[C@H]3C4=CC=C(C(C)=O)[C@@]4(C)CCC32)C1 (stereo partly specified) showed a TGI (DLD-1 colon) greater than 100 µM, a TGI (DMS 273 small cell lung) greater than 100 µM and a TGI (LXFL 529 NSCLC) greater than 100 µM. It also gave a TGI (SNB-78 CNS) greater than 100 µM.
